{
  "source": "patent US20090305963A1",
  "about": "“Lipocalin 2 for the Treatment, Prevention, and Management of Cancer Metastasis, Angiogenesis, and Fibrosis” (priority 2005, published 2009)",
  "key": {"E-cadherin [1]": {"test_system": "E-cadherin", "test": "EMT phenotype, E-cadherin and vimentin protein in 4T1 clones (microscopy, western blot)", "type": "cell-based, mouse", "conditions": "for rank order of effect on R cell epithelial morphology and E-cadherin expression: R cells, 15 or 50 μg/ml, dose dependent", "source_text": "(§1) Cells were stained as described previously (Mammoto et al., Cancer Lett. 184:165-170, 2002) and images acquired with a Delta Vision system (Applied Precision, Issaquah, Wash.) equipped with an Axiovert 100 microscope (Carl Zeiss MicroImaging Inc., Shelton, Conn.) and a Photometrics 300 series scientific-grade cooled CCD camera, reading 12-bit images, and using the 63/1.4 NA plan-Neofluar objective. For immunoprecipitation and immunoblotting, tissues were weighed, diced, soaked in ice cold RIPA buffer with 1 mM phenylmethylsulfonyl fluoride (PMSF), 1 μg/ml Aprotinin, 1 mM Na3VO4, 1 nM NaF, homogenized on ice, centrifuged at 10,000 g for 10 minutes at 4° C., and the supernatant fluid collected as total cell lysate. Cultured cells were washed, scraped, and solubilized in a lysis buffer containing 20 mM Tris-HCl pH 7.5, 150 mM NaCl, 0.5% Triton X-100, 1% aprotinin, and 1 mM PMSF. After 20 minutes on ice, the cells were pelleted by centrifugation and the supernatants were used as a cell lysate. Cell lysates or immunoprecipitated cell lysates were separated by PAGE (NuPAGE® gels; Invitrogen, Carlsbad, Calif.), followed by electroblotting onto a polyvinylidenedifluoride membrane (PVDF). Protein bands were detected using SuperSignal® West Pico Chemiluminescent Substrate (Pierce Chemical Co., Rockford, Ill.) (Hanai et al., J. Cell. Biol. 158:529-539, 2002).\nTo assess the effects of lipocalin 2 on ras-mediated transformation, we chose a syngeneic spontaneously metastasizing murine breast cancer model (4T1 cell line) and accelerated its metastatic potential by introduction of constitutively active mouse H-ras mutant A12 using retrovirus. […] We generated stable clones of 4T1-ras cells expressing lipocalin 2 (RL) by transfection of a lipocalin 2 expression plasmid (lipocalin 2-pcDNA3.1). […] (FIG. 2A, lower panel, and FIG. 2B). […] Expression of E-cadherin in RL cells was dependent on the dose of lipocalin 2-pcDNA3.1 expression vector (transiently introduced in a population of R cells), on a conditioned medium containing lipocalin 2 (FIGS. 2D-E), as well as on recombinant lipocalin 2 protein. R cells shown in FIG. 2D were seeded in a 6-well plate and transfected with lipocalin 2 by FuGene 6 at 40% confluency. After 48 hours, cells were trypsinized, respread on 6-well plate, and transfected again in the same conditions. After 72 hours, cells were harvested and analyzed by western blotting. EV cells in FIG. 2E were seeded in a 6-well plate with 1 ml/well containing 10% FCS with DMEM and 2 ml of CM was added at 10% confluency. After 72 hours, cells were harvested and analyzed by western blotting. CM is a mixture of media from 293T cells transfected with lipocalin 2 and from 293 cells transfected with empty vector (pcDNA3.1)."}, "VEGF": {"test_system": "VEGF", "test": "Measurement of VEGF levels by ELISA in conditioned media of 4T1 cells", "type": "cell-based, mouse", "conditions": "R cells; 2 days of incubation; dose dependent", "description": "Conditioned media of 4T1 cells were collected after 2 days of incubation. Murine VEGF levels were determined in duplicate using a commercially available sandwich ELISA kit (R&D Systems, Minneapolis, Minn.), with a affinity purified polyclonal antibody specific for mouse VEGF has been pre-coated onto a microplate. Results were compared with a standard curve of mouse VEGF with a lower detection limit of 7 pg/mL. A model 680 microplate-reader (Bio-Rad Laboratories, CA) was used to measure light intensity correlating with VEGF binding."}, "E-cadherin [2]": {"test_system": "E-cadherin", "test": "E-cadherin phosphorylation (immunoprecipitation and western blot)", "type": "cell-based, mouse", "conditions": "R cells vs RL cells or R cells with inhibitor", "source_text": "as §1"}, "E-cadherin [3]": {"test_system": "E-cadherin", "test": "Induction of E-cadherin in embryonic mesenchyme", "type": "cell-based, rat", "conditions": "enterochelin siderophore complex with gallium instead of iron"}, "raf, MEK, and ERK1/2": {"test_system": "raf, MEK, and ERK1/2", "test": "Western blots with phosphospecific antibodies for ras-MAPK signaling molecules", "type": "cell-based, mouse", "conditions": "R cells", "source_text": "as §1, with “After 20 minutes on ice, the cells were pelleted by centrifugation and the supernatants were used as a cell lysate. Cell lysates or immunoprecipitated cell lysates were separated by PAGE (NuPAGE® gels; Invitrogen, Carlsbad, Calif.), followed by electroblotting onto a polyvinylidenedifluoride membrane (PVDF).” left out\nFor these experiments, EV and R cells were starved in DMEM without serum for 48 hours. […] Signaling events downstream of ERK activation were then monitored with a multi-copy serum-response element (SRE)-luciferase construct introduced into EV, R, and RL (FIG. 6B). […]"}, "[4]": {"test_system": "serum-response element (SRE)", "test": "SRE-luciferase assay", "type": "cell-based, mouse", "description": "After transient transfection of the plasmids, cells were incubated for 20 hours in 10% FCS and luciferase activity in the cell lysates was determined using a luminometer normalized by sea-pansy luciferase activity under the control of the thymidine kinase promoter. The Dual-Luciferase Reporter Assay System was purchased from Promega (Madison, Wis.) (Hanai et al., J. Biol. Chem. 277:16464-16469, 2002).\nFor these experiments, EV and R cells were starved in DMEM without serum for 48 hours. During this time, half of the R cells were incubated with 50 μg/ml of lipocalin 2 protein with iron-loaded siderophore (R+Lipo:Sid:Fe), after which all cells were incubated with 10% FCS containing DMEM for 20 minutes and then harvested for western blotting with phosphospecific antibodies. Signaling events downstream of ERK activation were then monitored with a multi-copy serum-response element (SRE)-luciferase construct introduced into EV, R, and RL (FIG. 6B). For these experiments, an SRE-luciferase assay was performed on 4T1 clones after the 48 hour incubation in serum free DMEM. […] Just like R cells treated with exogenous protein (FIG. 6A), R cells infection with recombinant adenovirus carrying lipocalin 2, but not GFP, reduced SRE-luciferase activity, MEK, and ERK1/2 phosphorylation, without altering ras expression.\nTo localize the effect of lipocalin on ras-MAPK signaling, we utilized an adenovirus and expression plasmid encoding a constitutively active MEK (MEK-DD) (Murakami et al., Cell Growth Differ 10:333-342, 1999). MEK-DD adenoviral infection of EV cells led to increased SRE-luciferase activity (increased MAPK activity). […] RL cells in a 6-well plate were infected with an adenovirus carrying the MEK dominant active form (MEK-DD) and a Lac-Z adenovirus at the indicated multiplicities (MOI) in 2% serum including DMEM medium for 48 hours. Cells were then trypsinized, respread on 6-well plate at 5-10% confluency, and incubated with 10% serum including DMEM medium. Cell lysates were collected for western blotting 48 hours after the final plating (FIG. 6D). […]"}},
  "note": "Where a name gives a salt, the structure may show the parent alone. Where a SMILES comes first, the peptide text is derived from it. The star is where a group is joined. Cbz = O=C(OCc1ccccc1)*",
  "data": [
    {"molecule": "CC(=O)N(O)CCCCCNC(=O)CCC(=O)N(O)CCCCCNC(=O)CCC(=O)N(O)CCCCCN", "note": "[DFO, Deferoxamine mesylate]", "values": [
      {"measurement": "E-cadherin expression in RL cells", "setting": "E-cadherin [1]; 2-5 μM, 48 hours", "value": "suppressed E-cadherin expression"},
      {"measurement": "morphology of RL cells", "setting": "E-cadherin [1]; 2-5 μM, 48 hours", "value": "changed the morphology of RL cells to a mesenchymal phenotype"}
    ]},
    {"molecule": "O=c1cc(N2CCOCC2)oc2c(-c3ccccc3)cccc12", "note": "[LY294002]", "values": [
      {"measurement": "maximum inhibition of VEGF production, each inhibitor alone", "setting": "VEGF", "value": "approximately 50%"}
    ]},
    {"molecule": "CC(C)C[C@@H](C=O)NC(=O)[C@H](CC(C)C)NC(=O)[C@H](CC(C)C)NC(=O)OCc1ccccc1", "note": "[MG132] (Cbz-Leu-Leu-Leu-aldehyde)", "values": [
      {"measurement": "E-cadherin protein in EV cells", "setting": "E-cadherin [1]; 0.5 nM for 2 days", "value": "increased E-cadherin protein"},
      {"measurement": "E-cadherin protein in R cells", "setting": "E-cadherin [1]; 0.5 nM for 2 days", "value": "increased E-cadherin protein"},
      {"measurement": "E-cadherin protein in RL cells", "setting": "E-cadherin [1]; 0.5 nM for 2 days", "value": "only slightly increased E-cadherin"},
      {"measurement": "phenotype of R cells", "setting": "E-cadherin [1]; 0.5 nM for 48 hours", "value": "reverted R cells to an epithelial phenotype"}
    ]},
    {"molecule": "N#CC(=C(/N)Sc1ccccc1N)/C(C#N)=C(\\N)Sc1ccccc1N", "note": "[U0126]", "values": [
      {"measurement": "maximum inhibition of VEGF production, each inhibitor alone", "setting": "VEGF", "value": "approximately 50%"},
      {"measurement": "effect on ras-induced EMT", "setting": "E-cadherin [1]", "value": "reversed ras-induced EMT"},
      {"measurement": "E-cadherin phosphorylation", "setting": "E-cadherin [2]", "value": "markedly downregulated"}
    ]},
    {"molecule": "O=S(=O)([O-])[O-].O=S(=O)([O-])[O-].[Fe+3].[NH4+]", "note": "[ferric ammonium sulfate]", "values": [
      {"measurement": "phenotype of R cells after adding iron", "setting": "E-cadherin [1]; 50 μM", "value": "did not change their phenotype"}
    ]},
    {"molecule": "[Ga]", "note": "[gallium]", "values": [
      {"measurement": "induction of E-cadherin in mesenchyme when iron is substituted", "setting": "E-cadherin [3]", "value": "greatly diminished"}
    ]},
    {"molecule": "Lipo:Sid:Fe: recombinant mouse lipocalin 2 mixed with iron-loaded bacterial siderophore enterochelin (protein, UniProt P11672 21-200, looked up, iron-loaded enterochelin siderophore complex, recombinant mouse lipocalin 2 mixed with iron-loaded bacterial siderophore enterochelin) Neutrophil …: QDSTQNLIPAPSLLTVPLQPDFRSDQFRGRWYVVGLAGNAVQKKTEGSFTMYSTIYELQENNSYNVTSILVRDQDQGCRYWIRTFVPSSRAGQFTLGNMHRYPQVQSYNVQVATTDYNQFAMVFFRKTSENKQYFKITLYGRTKELSPELKERFTRFAKSLGLKDDNIIFSVPTDQCIDN", "values": [
      {"measurement": "rank order of effect on R cell epithelial morphology and E-cadherin expression", "setting": "E-cadherin [1]", "value": "Lipo:Sid:Fe>Lipo:Sid>Lipo"},
      {"measurement": "total ras expression", "setting": "raf, MEK, and ERK1/2; 50 μg/ml for 48 hours", "value": "unchanged"},
      {"measurement": "ras induced phosphorylation of raf, MEK, and ERK1/2", "setting": "raf, MEK, and ERK1/2; 50 μg/ml for 48 hours serum free, then 10% FCS 20 minutes", "value": "largely abrogated"},
      {"measurement": "SRE-luciferase activity induced by CA-H-ras", "setting": "[4]; EV cells transfected with H-ras V12", "value": "downregulated SRE-luciferase activity"},
      {"measurement": "inhibition of MEK-DD induced SRE-luciferase activity", "setting": "[4]; EV cells transfected with MEK-DD", "value": "unable to inhibit this effect"}
    ]},
    {"molecule": "Lipo:Sid: recombinant mouse lipocalin 2 mixed with iron-unloaded bacterial siderophore enterochelin (protein, UniProt P11672 21-200, looked up, iron-free enterochelin siderophore, recombinant mouse lipocalin 2 mixed with iron-unloaded bacterial siderophore enterochelin) Neutrophil …: QDSTQNLIPAPSLLTVPLQPDFRSDQFRGRWYVVGLAGNAVQKKTEGSFTMYSTIYELQENNSYNVTSILVRDQDQGCRYWIRTFVPSSRAGQFTLGNMHRYPQVQSYNVQVATTDYNQFAMVFFRKTSENKQYFKITLYGRTKELSPELKERFTRFAKSLGLKDDNIIFSVPTDQCIDN", "values": [
      {"measurement": "rank order of effect on R cell epithelial morphology and E-cadherin expression", "setting": "E-cadherin [1]", "value": "Lipo:Sid:Fe>Lipo:Sid>Lipo"}
    ]},
    {"molecule": "Lipo: recombinant mouse lipocalin 2 protein expressed in E. coli BL21, without siderophore (protein, UniProt P11672 21-200, looked up) Neutrophil …: QDSTQNLIPAPSLLTVPLQPDFRSDQFRGRWYVVGLAGNAVQKKTEGSFTMYSTIYELQENNSYNVTSILVRDQDQGCRYWIRTFVPSSRAGQFTLGNMHRYPQVQSYNVQVATTDYNQFAMVFFRKTSENKQYFKITLYGRTKELSPELKERFTRFAKSLGLKDDNIIFSVPTDQCIDN", "values": [
      {"measurement": "rank order of effect on R cell epithelial morphology and E-cadherin expression", "setting": "E-cadherin [1]", "value": "Lipo:Sid:Fe>Lipo:Sid>Lipo"}
    ]}
  ]
}
